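Protocol summary: plate cells (96-well), add compound at 5 concentrations, incubate 48 h, interpolate endpoints linearly. At the GI50, growth is halved. TGI is the concentration that stops growth completely.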
Experiments:
Assay in all cases: NCI tumour cell line growth inhibition, 48 h
786-0 renal = test system: 786-0 renal
A498 renal = test system: A498 renal
A549 NSCLC = test system: A549 NSCLC
ACHN renal = test system: ACHN renal
BT-549 breast = test system: BT-549 breast
CAKI-1 renal = test system: CAKI-1 renal
CCRF-CEM leukemia = test system: CCRF-CEM leukemia
COLO 205 colon = test system: COLO 205 colon
DU-145 prostate = test system: DU-145 prostate
EKVX NSCLC = test system: EKVX NSCLC
HCC-2998 colon = test system: HCC-2998 colon
HCT-116 colon = test system: HCT-116 colon
HCT-15 colon = test system: HCT-15 colon
HL-60(TB) leukemia = test system: HL-60(TB) leukemia
HOP-62 NSCLC = test system: HOP-62 NSCLC
HOP-92 NSCLC = test system: HOP-92 NSCLC
HS 578T breast = test system: HS 578T breast
HT29 colon = test system: HT29 colon
IGROV1 ovarian = test system: IGROV1 ovarian
K-562 leukemia = test system: K-562 leukemia
KM12 colon = test system: KM12 colon
LOX IMVI melanoma = test system: LOX IMVI melanoma
M14 melanoma = test system: M14 melanoma
MALME-3M melanoma = test system: MALME-3M melanoma
MCF7 breast = test system: MCF7 breast
MDA-MB-231 breast = test system: MDA-MB-231 breast
MDA-MB-435 = test system: MDA-MB-435
MOLT-4 leukemia = test system: MOLT-4 leukemia
NCI-H226 lung = test system: NCI-H226 lung
NCI-H23 lung = test system: NCI-H23 lung
NCI-H460 lung = test system: NCI-H460 lung
NCI-H522 lung = test system: NCI-H522 lung
NCI/ADR-RES ovarian = test system: NCI/ADR-RES ovarian
OVCAR-3 ovarian = test system: OVCAR-3 ovarian
OVCAR-4 ovarian = test system: OVCAR-4 ovarian
OVCAR-5 ovarian = test system: OVCAR-5 ovarian
OVCAR-8 ovarian = test system: OVCAR-8 ovarian
PC-3 prostate = test system: PC-3 prostate
RPMI-8226 leukemia = test system: RPMI-8226 leukemia
RXF 393 renal = test system: RXF 393 renal
SF-268 CNS = test system: SF-268 CNS
SF-295 CNS = test system: SF-295 CNS
SF-539 CNS = test system: SF-539 CNS
SK-MEL-2 melanoma = test system: SK-MEL-2 melanoma
SK-MEL-28 melanoma = test system: SK-MEL-28 melanoma
SK-MEL-5 melanoma = test system: SK-MEL-5 melanoma
SK-OV-3 ovarian = test system: SK-OV-3 ovarian
SN12C renal = test system: SN12C renal
SNB-19 CNS = test system: SNB-19 CNS
SNB-75 CNS = test system: SNB-75 CNS
SW-620 colon = test system: SW-620 colon
T-47D breast = test system: T-47D breast
TK-10 renal = test system: TK-10 renal
U251 CNS = test system: U251 CNS
UACC-257 melanoma = test system: UACC-257 melanoma
UACC-62 melanoma = test system: UACC-62 melanoma
UO-31 renal = test system: UO-31 renal

With `O=C(NC1CCCCC1)OCc1c(COC(=O)NC2CCCCC2)c(-c2ccc(Cl)c(Cl)c2)n2c1CCC2` the GI50 (786-0 renal) was 3.26 µM, the TGI (786-0 renal) was 10.7 µM and the GI50 (A498 renal) was 1.59 µM. It also gave a TGI (A498 renal) of 3.32 µM, a GI50 (A549 NSCLC) of 7.47 µM and a TGI (A549 NSCLC) of 94.2 µM. For the same compound, the GI50 (ACHN renal) was 3.04 µM, the TGI (ACHN renal) was 41.6 µM and the GI50 (BT-549 breast) was 3.53 µM. For the same compound, the TGI (BT-549 breast) was 14.2 µM, the GI50 (CAKI-1 renal) was 2.35 µM and the TGI (CAKI-1 renal) was > 100 µM. For the same compound, the GI50 (CCRF-CEM leukemia) was 3.21 µM, the TGI (CCRF-CEM leukemia) was > 100 µM and the GI50 (COLO 205 colon) was 4.2 µM. The TGI (COLO 205 colon) was 16.6 µM, the GI50 (DU-145 prostate) was 3.72 µM and the TGI (DU-145 prostate) was 20.9 µM. It also gave a GI50 (EKVX NSCLC) of 9.79 µM, a TGI (EKVX NSCLC) of 94.4 µM and a GI50 (HCC-2998 colon) of 10.5 µM. It also gave a TGI (HCC-2998 colon) of 23 µM, a GI50 (HCT-116 colon) of 3.72 µM and a TGI (HCT-116 colon) of 15.2 µM. For the same compound, the GI50 (HCT-15 colon) was 5.56 µM, the TGI (HCT-15 colon) was 43.2 µM and the GI50 (HL-60(TB) leukemia) was 2.24 µM. For the same compound, the TGI (HL-60(TB) leukemia) was > 100 µM, the GI50 (HOP-62 NSCLC) was 4.57 µM and the TGI (HOP-62 NSCLC) was 21 µM. For the same compound, the GI50 (HOP-92 NSCLC) was 1.94 µM, the TGI (HOP-92 NSCLC) was 12.5 µM and the GI50 (HS 578T breast) was 3.72 µM. For the same compound, the TGI (HS 578T breast) was 21.4 µM, the GI50 (HT29 colon) was 4.97 µM and the TGI (HT29 colon) was 71.4 µM. The GI50 (IGROV1 ovarian) was 5.62 µM, the TGI (IGROV1 ovarian) was > 100 µM and the GI50 (K-562 leukemia) was 4.83 µM. The TGI (K-562 leukemia) was > 100 µM, the GI50 (KM12 colon) was 11.9 µM and the TGI (KM12 colon) was 29.3 µM. For the same compound, the GI50 (LOX IMVI melanoma) was 2.98 µM, the TGI (LOX IMVI melanoma) was 16.4 µM and the GI50 (M14 melanoma) was 4.17 µM. The TGI (M14 melanoma) was 16.3 µM, the GI50 (MALME-3M melanoma) was 5.92 µM and the TGI (MALME-3M melanoma) was 22.7 µM. For the same compound, the GI50 (MCF7 breast) was 3.83 µM, the TGI (MCF7 breast) was 27.9 µM and the GI50 (MDA-MB-231 breast) was 5.6 µM. The TGI (MDA-MB-231 breast) was 50.7 µM, the GI50 (MDA-MB-435) was 8.23 µM and the TGI (MDA-MB-435) was 28.8 µM. For the same compound, the GI50 (MOLT-4 leukemia) was 2.6 µM, the TGI (MOLT-4 leukemia) was > 100 µM and the GI50 (NCI-H226 lung) was 2.51 µM. The TGI (NCI-H226 lung) was 22.4 µM, the GI50 (NCI-H23 lung) was 4.35 µM and the TGI (NCI-H23 lung) was 21 µM. It also gave a GI50 (NCI-H460 lung) of 1.19 µM, a TGI (NCI-H460 lung) of 14.1 µM and a GI50 (NCI-H522 lung) of 3.01 µM. For the same compound, the TGI (NCI-H522 lung) was 11.8 µM, the GI50 (NCI/ADR-RES ovarian) was 4.24 µM and the TGI (NCI/ADR-RES ovarian) was 18.6 µM. The GI50 (OVCAR-3 ovarian) was 5.32 µM, the TGI (OVCAR-3 ovarian) was 22.3 µM and the GI50 (OVCAR-4 ovarian) was 3.42 µM. It also gave a TGI (OVCAR-4 ovarian) of 62.9 µM, a GI50 (OVCAR-5 ovarian) of 5.19 µM and a TGI (OVCAR-5 ovarian) of 44.3 µM. For the same compound, the GI50 (OVCAR-8 ovarian) was 4.3 µM, the TGI (OVCAR-8 ovarian) was 32.3 µM and the GI50 (PC-3 prostate) was 6.05 µM. It also gave a TGI (PC-3 prostate) of 29.3 µM, a GI50 (RPMI-8226 leukemia) of 4.55 µM and a TGI (RPMI-8226 leukemia) of 29 µM. The GI50 (RXF 393 renal) was 2.87 µM, the TGI (RXF 393 renal) was 9.36 µM and the GI50 (SF-268 CNS) was 3.79 µM. The TGI (SF-268 CNS) was 21.3 µM, the GI50 (SF-295 CNS) was 3.38 µM and the TGI (SF-295 CNS) was 29.1 µM. The GI50 (SF-539 CNS) was 3.06 µM, the TGI (SF-539 CNS) was 13.7 µM and the GI50 (SK-MEL-2 melanoma) was 3.72 µM. It also gave a TGI (SK-MEL-2 melanoma) of 12.7 µM, a GI50 (SK-MEL-28 melanoma) of 14.2 µM and a TGI (SK-MEL-28 melanoma) of 45.3 µM. For the same compound, the GI50 (SK-MEL-5 melanoma) was 7.06 µM, the TGI (SK-MEL-5 melanoma) was 20.8 µM and the GI50 (SK-OV-3 ovarian) was 2.58 µM. The TGI (SK-OV-3 ovarian) was 11.8 µM, the GI50 (SN12C renal) was 3.58 µM and the TGI (SN12C renal) was > 100 µM. The GI50 (SNB-19 CNS) was 5.79 µM, the TGI (SNB-19 CNS) was 47.6 µM and the GI50 (SNB-75 CNS) was 4.19 µM. The TGI (SNB-75 CNS) was 25 µM, the GI50 (SW-620 colon) was 3.89 µM and the TGI (SW-620 colon) was 22.6 µM. It also gave a GI50 (T-47D breast) of 3.83 µM, a TGI (T-47D breast) of 19.5 µM and a GI50 (TK-10 renal) of 3.72 µM. For the same compound, the TGI (TK-10 renal) was 31.7 µM, the GI50 (U251 CNS) was 4.43 µM and the TGI (U251 CNS) was 22.8 µM. The GI50 (UACC-257 melanoma) was 10.8 µM, the TGI (UACC-257 melanoma) was 37.4 µM and the GI50 (UACC-62 melanoma) was 2.37 µM. The TGI (UACC-62 melanoma) was 12.9 µM, the GI50 (UO-31 renal) was 3.17 µM and the TGI (UO-31 renal) was 16.2 µM.
